Results on 16 molecules are retold here after US9074014B2 (Ipsen Pharma S.A.S., priority 2008, dated 2015).

*1 amine or outer side, *2 acyl side, *3 side chain or, on linkers, in order; H or OH if unused. Where a SMILES comes first, the peptide text is derived from it. Where no end group is shown, it is not given here. [ ]: non-standard residue; d: D form. X2 = O=C([C@@H]1CC(O)CN1[*:1])[*:2]; Tic = O=C(O)[C@@H]1Cc2ccccc2CN1; Ac6c = NC1(C(=O)O)CCCCC1; Nle = CCCC[C@H](N)C(=O)O; Ac5c = NC1(C(=O)O)CCCC1; Aib = CC(C)(N)C(=O)O

The nature of data set [1]: Rat plasma half-life assay. It is filed as in vitro ADME. Particulars: rat plasma, 37° C., LC-MS; read-out: Rat Plasma T½ (converted).
The nature of data set [2]: Human plasma half-life assay. It is filed as in vitro ADME. Particulars: human plasma, 37° C., LC-MS; read-out: Human Plasma T½ (converted).

For the molecule `CC[C@H](C)[C@H](NC(=O)[C@H](CO)NC(=O)[C@H](Cc1ccc(O)cc1)NC(=O)[C@H](CC(=O)O)NC(=O)[C@H](CO)NC(=O)C1(NC(=O)[C@H](Cc2ccccc2)NC(=O)[C@@H](NC(=O)CNC(=O)[C@H](CCC(=O)O)NC(=O)C(C)(C)NC(=O)[C@@H](N)Cc2ccc(O)cc2)[C@@H](C)O)CCCCC1)C(=O)N[C@@H](C)C(=O)NC1(C(=O)N[C@@H](CC(=O)O)C(=O)N[C@@H](CCCCN)C(=O)N[C@H](C(=O)N[C@@H](Cc2c[nH]cn2)C(=O)N[C@@H](CCC(N)=O)C(=O)N[C@@H](CCC(N)=O)C(=O)N[C@@H](CC(=O)O)C(=O)N[C@@H](Cc2ccccc2)C(=O)N[C@H](C(=O)N[C@@H](CC(N)=O)C(=O)N[C@@H](Cc2c[nH]c3ccccc23)C(=O)N[C@@H](CC(C)C)C(=O)N[C@@H](CC(C)C)C(=O)N[C@@H](C)C(=O)N[C@@H](CCC(N)=O)C(=O)N[C@@H](CCCCN)C(N)=O)C(C)C)[C@@H](C)CC)CCCCC1` [Example 39, (Aib^2, A6c^7, 14)hGIP(1-30)-NH2] (H-Y[Aib]EGTF[Ac6c]SDYSIA[Ac6c]DKIHQQDFVNWLLAQK-NH2; N-terminus assumed), the half-life at 0.1 mg/ml was 43.3 h in data set [1] and 42.3 h in data set [2].
In the case of “Y[Aib]EGTF[Aib]SDYSIAMDKIHQQDFVNWLLAQKGKKNDWKHNITQ-OH [Example 3, (Aib^2, 7)hGIP(1-42)-OH]”, the half-life at 0.1 mg/ml in data set [1] is 5.5 h; in data set [2], greater than 48 h.
As to “YA[Tic]GTFISDY[Ac5c]IAMDKIHQQDFVNWLLAQKGKKNDWKHNITQ-OH [Example 82, (Tic^3, A5c^11)hGIP(1-42)-OH]”, the figures for the half-life at 0.1 mg/ml in data set [1] and in data set [2] were 10.2 h and 9.7 h, respectively.
For `CC[C@H](C)[C@H](NC(=O)[C@H](CCCCN)NC(=O)[C@H](CC(=O)O)NC(=O)[C@H](CCSC)NC(=O)[C@H](C)NC(=O)[C@@H](NC(=O)C1(NC(=O)[C@H](Cc2ccc(O)cc2)NC(=O)[C@H](CC(=O)O)NC(=O)[C@H](CO)NC(=O)[C@@H](NC(=O)[C@H](Cc2ccccc2)NC(=O)[C@@H](NC(=O)CNC(=O)[C@@H]2CCCN2C(=O)C(C)(C)NC(=O)[C@@H](N)Cc2ccc(O)cc2)[C@@H](C)O)[C@@H](C)CC)CCCC1)[C@@H](C)CC)C(=O)N[C@@H](Cc1c[nH]cn1)C(=O)N[C@@H](CCC(N)=O)C(=O)N[C@@H](CCC(N)=O)C(=O)N[C@@H](CC(=O)O)C(=O)N[C@@H](Cc1ccccc1)C(=O)N[C@H](C(=O)N[C@@H](CC(N)=O)C(=O)N[C@@H](Cc1c[nH]c2ccccc12)C(=O)N[C@@H](CC(C)C)C(=O)N[C@@H](CC(C)C)C(=O)N[C@@H](C)C(=O)N[C@@H](CCC(N)=O)C(=O)N[C@@H](CCCCN)C(N)=O)C(C)C` [Example 110, (Aib^2, Pro^3, A5c^11)hGIP(1-30)-NH2] (H-Y[Aib]PGTFISDY[Ac5c]IAMDKIHQQDFVNWLLAQK-NH2; N-terminus assumed) the same measures were 25.8 h and 13.7 h.
Taken in the same sequence, the figures for “Y[Aib]EGTF[Ac6c]SDYSIA[Nle]DK[Ac6c]HQQDFVNWLLAQKGKKNDWKHNITQ-OH [Example 37, (Aib^2, A6c^7, 17, Nle^14)hGIP(1-42)-OH]” were 14 h and greater than 48 h.
For `CC[C@H](C)[C@H](NC(=O)[C@H](CO)NC(=O)[C@H](Cc1ccc(O)cc1)NC(=O)[C@H](CC(=O)O)NC(=O)[C@H](CO)NC(=O)C(C)(C)NC(=O)[C@H](Cc1ccccc1)NC(=O)[C@@H](NC(=O)CNC(=O)[C@H](CCC(=O)O)NC(=O)C(C)(C)NC(=O)[C@@H](N)Cc1ccc(O)cc1)[C@@H](C)O)C(=O)N[C@@H](C)C(=O)N[C@@H](CCSC)C(=O)N[C@@H](CC(=O)O)C(=O)N[C@@H](CCCCN)C(=O)N[C@H](C(=O)N[C@@H](Cc1c[nH]cn1)C(=O)N[C@@H](CCC(N)=O)C(=O)N[C@@H](CCC(N)=O)C(=O)N[C@@H](CC(=O)O)C(=O)N[C@@H](Cc1ccccc1)C(=O)N[C@H](C(=O)N[C@@H](CC(N)=O)C(=O)N[C@@H](Cc1c[nH]c2ccccc12)C(=O)N[C@@H](CC(C)C)C(=O)N[C@@H](CC(C)C)C(=O)N[C@@H](C)C(=O)N[C@@H](CCC(N)=O)C(=O)N[C@@H](CCCCN)C(N)=O)C(C)C)[C@@H](C)CC` [Example 16, (Aib^2, 7)hGIP(1-30)-NH2] the same measures were greater than 48 h and 43.9 h.
As for `CC[C@H](C)[C@H](NC(=O)[C@H](CCCCN)NC(=O)[C@H](CC(=O)O)NC(=O)C1(NC(=O)[C@H](C)NC(=O)[C@@H](NC(=O)C2(NC(=O)[C@H](Cc3ccc(O)cc3)NC(=O)[C@H](CC(=O)O)NC(=O)[C@H](CO)NC(=O)[C@@H](NC(=O)[C@H](Cc3ccccc3)NC(=O)[C@@H](NC(=O)CNC(=O)[C@@H]3CCCCN3C(=O)[C@H](C)NC(=O)[C@@H](N)Cc3ccc(O)cc3)[C@@H](C)O)[C@@H](C)CC)CCCC2)[C@@H](C)CC)CCCCC1)C(=O)N[C@@H](Cc1c[nH]cn1)C(=O)N[C@@H](CCC(N)=O)C(=O)N[C@@H](CCC(N)=O)C(=O)N[C@@H](CC(=O)O)C(=O)N[C@@H](Cc1ccccc1)C(=O)N[C@H](C(=O)N[C@@H](CC(N)=O)C(=O)N[C@@H](Cc1c[nH]c2ccccc12)C(=O)N[C@@H](CC(C)C)C(=O)N[C@@H](CC(C)C)C(=O)N[C@@H](C)C(=O)N[C@@H](CCC(N)=O)C(=O)N[C@@H](CCCCN)C(=O)NCC(=O)N[C@@H](CCCCN)C(=O)N[C@@H](CCCCN)C(=O)N[C@@H](CC(N)=O)C(=O)N[C@@H](CC(=O)O)C(=O)N[C@@H](Cc1c[nH]c2ccccc12)C(=O)N[C@@H](CCCCN)C(=O)N[C@@H](Cc1c[nH]cn1)C(=O)N[C@@H](CC(N)=O)C(=O)N[C@H](C(=O)N[C@H](C(=O)N[C@@H](CCC(N)=O)C(=O)O)[C@@H](C)O)[C@@H](C)CC)C(C)C` [Example 83, (hPro^3, A5c^11, A6c^14)hGIP(1-42)-OH], the half-life at 0.1 mg/ml in data set [1] is 1.1 h; in data set [2], 32.4 h.
On to `CC[C@H](C)[C@H](NC(=O)[C@H](CO)NC(=O)[C@H](Cc1ccc(O)cc1)NC(=O)[C@H](CC(=O)O)NC(=O)[C@H](CO)NC(=O)[C@@H](NC(=O)[C@H](Cc1ccccc1)NC(=O)[C@@H](NC(=O)C(C)(C)NC(=O)[C@H](CCC(=O)O)NC(=O)C(C)(C)NC(=O)[C@@H](N)Cc1ccc(O)cc1)[C@@H](C)O)[C@@H](C)CC)C(=O)N[C@@H](C)C(=O)N[C@@H](CCSC)C(=O)N[C@@H](CC(=O)O)C(=O)N[C@@H](CCCCN)C(=O)N[C@H](C(=O)N[C@@H](Cc1c[nH]cn1)C(=O)N[C@@H](CCC(N)=O)C(=O)N[C@@H](CCC(N)=O)C(=O)N[C@@H](CC(=O)O)C(=O)N[C@@H](Cc1ccccc1)C(=O)N[C@H](C(=O)N[C@@H](CC(N)=O)C(=O)N[C@@H](Cc1c[nH]c2ccccc12)C(=O)N[C@@H](CC(C)C)C(=O)N[C@@H](CC(C)C)C(=O)N[C@@H](C)C(=O)N[C@@H](CCC(N)=O)C(=O)N[C@@H](CCCCN)C(N)=O)C(C)C)[C@@H](C)CC` [Example 14, (Aib^2, 4)hGIP(1-30)-NH2], for which the results for the half-life at 0.1 mg/ml in data set [1] and in data set [2] were 48 h and 34.8 h, respectively.
In the case of “YA[Tic]GTFISDYSI[Aib]MDKIHQQDFVNWLLAQKGKKNDWKHNITQ [Example 66, (Tic^3, Aib^13)hGIP(1-42)-OH]”, the values for the half-life at 0.1 mg/ml in data set [1] and in data set [2] were 8.8 h and 19.1 h, respectively.
Taken in the same sequence, the figures for “YAPGTFISDYSIA[Ac6c]DKIHQQDFVNWLLAQKGKKNDWKHNITQ-OH [Example 91, (Pro^3, A6c^14)hGIP(1-42)-OH]” were 1 h and 13.4 h.
For “H-YA[X2]GTFISDY[Ac5c]IAMDKIHQQDFVNWLLAQKGKKNDWKHNITQ-OH [Example 87, (4Hyp^3, A5c^11)hGIP(1-42)-OH]” the same measures were 3.4 h and 38.7 h.
Taken in the same sequence, the figures for `CCCC[C@H](NC(=O)C(C)(C)NC(=O)[C@@H](NC(=O)[C@H](CO)NC(=O)[C@H](Cc1ccc(O)cc1)NC(=O)[C@H](CC(=O)O)NC(=O)[C@H](CO)NC(=O)[C@@H](NC(=O)[C@H](Cc1ccccc1)NC(=O)[C@@H](NC(=O)CNC(=O)[C@@H]1Cc2ccccc2CN1C(=O)[C@H](C)NC(=O)[C@@H](N)Cc1ccc(O)cc1)[C@@H](C)O)[C@@H](C)CC)[C@@H](C)CC)C(=O)N[C@@H](CC(=O)O)C(=O)N[C@@H](CCCCN)C(=O)N[C@H](C(=O)N[C@@H](Cc1c[nH]cn1)C(=O)N[C@@H](CCC(N)=O)C(=O)N[C@@H](CCC(N)=O)C(=O)N[C@@H](CC(=O)O)C(=O)N[C@@H](Cc1ccccc1)C(=O)N[C@H](C(=O)N[C@@H](CC(N)=O)C(=O)N[C@@H](Cc1c[nH]c2ccccc12)C(=O)N[C@@H](CC(C)C)C(=O)N[C@@H](CC(C)C)C(=O)N[C@@H](C)C(=O)N[C@@H](CCC(N)=O)C(=O)N[C@@H](CCCCN)C(=O)NCC(=O)N[C@@H](CCCCN)C(=O)N[C@@H](CCCCN)C(=O)N[C@@H](CC(N)=O)C(=O)N[C@@H](CC(=O)O)C(=O)N[C@@H](Cc1c[nH]c2ccccc12)C(=O)N[C@@H](CCCCN)C(=O)N[C@@H](Cc1c[nH]cn1)C(=O)N[C@@H](CC(N)=O)C(=O)N[C@H](C(=O)N[C@H](C(=O)N[C@@H](CCC(N)=O)C(=O)O)[C@@H](C)O)[C@@H](C)CC)C(C)C)[C@@H](C)CC` [Example 69, (Tic^3, Aib^13, Nle^14)hGIP(1-42)-OH] were 1.8 h and 36.9 h.
Turning to “Y[Aib]EGTFISDY[Ac5c]IA[Ac6c]DKIHQQDFVNWLLAQKGKKNDWKHNITQ-OH [Example 61, (Aib^2, A5c^11, A6c^14)hGIP(1-42)-OH]”, the half-life at 0.1 mg/ml was 45.3 h in data set [1] and greater than 48 h in data set [2].
In the case of “Y[Aib]EGTFIS[Aib]YSIAMDKIHQQDFVNWLLAQKGKKNDWKHNITQ-OH [Example 2, (Aib^2, 9)hGIP(1-42)-OH]”, the half-life at 0.1 mg/ml in data set [1] is 5.6 h; in data set [2] it was 9.4 h.
Taken in the same sequence, the figures for “Y[Aib]EGTF[Ac6c]SDYSIA[Nle]DKIHQQDFVNWLL[Aib]QKGKKNDWKHNITQ-OH [Example 30, (Aib^2, 28, A6c^7, Nle^14)hGIP(1-42)-OH]” were 13.4 h and greater than 48 h.
For “Y[Aib]EGTF[Ac6c]SDYSIA[Nle]DKIHQQDFVNWLLAQKGKKNDWKHNITQ-OH [Example 55, (Aib^2, A6c^7, Nle^14)hGIP(1-42)-OH]” the same measures were 11.7 h and 8.8 h.
